This passage reports IC50 results from patent publication US10913738B2 (BRISTOL-MYERS SQUIBB COMPANY, priority 2017, dated 2021).

pIC50: −log10 of the molar value. Read-outs that look alike come from different tables or passages of the source. A value given as a limit tells only on which side of the number the result lay.

Test [1] addresses T1, His-GST-TVMV-hRIPK1(1-324) (Homo sapiens, UniProt Q13546).
T1 construct: The coding region of human RIPK1(1-324) flanked by NdeI site at 5′ end; made in house; host or cells: Spodoptera frugiperda (Sf9) insect cells, baculovirus
T1 sequence (Q13546 1-324): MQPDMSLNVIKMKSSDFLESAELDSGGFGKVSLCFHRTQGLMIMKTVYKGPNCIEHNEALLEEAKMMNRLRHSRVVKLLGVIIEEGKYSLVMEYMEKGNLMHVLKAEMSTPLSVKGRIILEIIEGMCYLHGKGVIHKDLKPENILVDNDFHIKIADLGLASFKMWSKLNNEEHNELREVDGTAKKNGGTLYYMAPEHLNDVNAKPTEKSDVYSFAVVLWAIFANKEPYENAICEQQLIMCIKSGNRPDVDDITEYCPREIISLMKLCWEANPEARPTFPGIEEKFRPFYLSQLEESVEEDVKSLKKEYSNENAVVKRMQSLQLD
Description: RIPK1 HTRF Binding Assay. (In general: Time-resolved FRET reads energy transfer from a long-lived donor to a nearby acceptor.)

The subject of test [2] is MLKL phosphorylation in HT29-L23 human colorectal adenocarcinoma cells. Description: MLKL Phosphorylation High-Content Assay. The test is classed as cell-based. To be noted: Homo sapiens. A digest of the protocol: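 IC50 and Ymax obtained by 4-parameter logistic fitting of MLKL phosphorylation, measured as mean circ-ring average intensity ratio from high-content images. Staining used an anti-phospho-S358 MLKL antibody overnight at 4° C., following six-hour cell incubation at 37° C.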

The mark [3] stands for this setting: x marks IC50 class >200 nM, read-out: pMLKL cell activity >200 nM.
Setting [4] is: x marks IC50 class <20 nM, read-out: RIPK1 HTRF binding <20 nM.
The mark [5] stands for this setting: x marks IC50 class <20 nM, read-out: pMLKL cell activity <20 nM.
Setting [6] is: x marks IC50 class 20-200 nM, read-out: RIPK1 HTRF binding 20-200 nM.
Where [7] appears, read: x marks IC50 class 20-200 nM, read-out: pMLKL cell activity 20-200 nM.

Consider `COc1ncc(-c2ccn3nc(N)nc3c2)cc1C(=O)NC(C)c1ccccc1OC(F)(F)F` (single isomer, unassigned) [Example 38-2, 5-{2-Amino-[1,2,4]triazolo[1,5-a]pyridin-7-yl}-2-methoxy-N-{1-[2-(trifluoromethoxy)phenyl]ethyl}pyridine-3-carboxamide], for which the pIC50 in test [1] (x marks IC50 class >200 nM, read-out: RIPK1 HTRF binding >200 nM) was below 6.70; in test [2] (setting [3]) it was below 6.70.

Take `[2H]C([2H])([2H])N(Cc1cc(OC(F)(F)F)ccc1F)C(=O)c1cc(-c2ccn3nc(N)nc3c2)cnc1OC` [Example 367, 5-(2-amino-[1,2,4]triazolo[1,5-a]pyridin-7-yl)-N-(2-fluoro-5-(trifluoromethoxy)benzyl)-2-methoxy-N-(methyl-d3)nicotinamide]: the pIC50 in test [1] (setting [4]) and in test [2] (setting [5]) was above 7.70 each time.

In the case of `Cc1ncc(-c2ccn3nc(N)nc3c2)cc1C(=O)NCc1cc(C(F)(F)F)ccc1F` [Example 226, 5-{2-amino-[1,2,4]triazolo[1,5-a]pyridin-7-yl}-N-{[2-fluoro-5-(trifluoromethyl)phenyl]methyl}-2-methylpyridine-3-carboxamide], the pIC50 in test [1] (setting [6]) and in test [2] (setting [7]) was 6.70 to 7.70 in each case.

With `COc1ncc(-c2ccn3nc(N)nc3c2)cc1C(=O)NCc1cccc(OCC2CC2)c1` [Example 47, 5-{2-Amino-[1,2,4]triazolo[1,5-a]pyridin-7-yl}-N-{[3-(cyclopropylmethoxy)phenyl]methyl}-2-methoxypyridine-3-carboxamide], the pIC50 in test [1] (setting [6]) is 6.70 to 7.70; in test [2] (setting [3]), below 6.70.

`COc1ncc(-c2ccn3nc(N)nc3c2)cc1C(=O)NCc1ccc(F)cc1OCC1CC1` [Example 145, 5-{2-amino-[1,2,4]triazolo[1,5-a]pyridin-7-yl}-N-{[2-(cyclopropylmethoxy)-4-fluorophenyl]mehtyl}-2-methoxypyridine-3-carboxaamide]: the values for the pIC50 in test [1] (setting [4]) and in test [2] (setting [7]) were above 7.70 and 6.70 to 7.70, respectively.

On to `Nc1nc2cc(-c3cncc(C(=O)NCc4cc(F)ccc4OC4CCCC4)c3)ccn2n1` [Example 41, 5-{2-Amino-[1,2,4]triazolo[1,5-a]pyridin-7-yl}-N-{[2-(cyclopentyloxy)-5-fluorophenyl]methyl}pyridine-3-carboxamide], for which the pIC50 is above 7.70 in test [1] (setting [4]) and 6.70 to 7.70 in test [2] (setting [7]).

`CC(CCNC(=O)c1cc(-c2ccn3nc(N)nc3c2)cnc1Cl)c1ccccc1` (centres unmarked) [Example 169, 5-{2-amino-[1,2,4]triazolo[1,5-a]pyridin-7-yl}-2-chloro-N-(3-phenylbutyl)pyridine-3-carboxamide]: the results for the pIC50 in test [1] (setting [6]) and in test [2] (setting [3]) were 6.70 to 7.70 and below 6.70, respectively.

With `Cc1ncc(-c2ccn3nc(N)nc3c2)cc1C(=O)NCc1ccccc1OCC(F)(F)F` [Example 312, 5-(2-amino-[1,2,4]triazolo[1,5-a]pyridin-7-yl)-2-methyl-N-(2-(2,2,2-trifluoroethoxy)benzyl)nicotinamide], the pIC50 in test [1] (setting [6]) was 6.70 to 7.70; in test [2] (setting [3]), below 6.70.

`COc1ncc(-c2ccn3nc(N)nc3c2)cc1C(=O)NCc1cc(F)cc(F)c1OC1CC1` [Example 344, 5-(2-amino-[1,2,4]triazolo[1,5-a]pyridin-7-yl)-N-(2-cyclopropoxy-3,5-difluorobenzyl)-2-methoxynicotinamide]: the pIC50 in test [1] (setting [4]) is above 7.70; in test [2] (setting [7]) it was 6.70 to 7.70.

Consider `Nc1nc2cc(-c3cc(C(=O)NCc4ccccc4OC(F)(F)F)cnc3Cl)ccn2n1` [Example 372, 5-(2-amino-[1,2,4]triazolo[1,5-a]pyridin-7-yl)-6-chloro-N-(2-(trifluoromethoxy)benzyl)nicotinamide], for which the pIC50 is above 7.70 in test [1] (setting [4]) and below 6.70 in test [2] (setting [3]).

In the case of `CCOc1ncc(-c2ccn3nc(N)nc3c2)cc1C(=O)NCc1ccccc1OCC1CC1` [Example 272, 5-{2-amino-[1,2,4]triazolo[1,5-a]pyridin-7-yl}-N-{[2-(cyclopropylmethoxy)phenyl]methyl}-2-ethoxypyridine-3-carboxamide], the figures for the pIC50 in test [1] (setting [4]) and in test [2] (setting [7]) were above 7.70 and 6.70 to 7.70, respectively.

In the case of `Cc1ncc(-c2ccn3nc(N)nc3c2)cc1C(=O)NCc1ccccc1OCC1CC1` [Example 250, 5-{2-amino-[1,2,4]triazolo[1,5-a]pyridin-7-yl}-N-{[2-(cyclopropylmethoxy)phenyl]methyl}-2-methylpyridine-3-carboxamide], the results for the pIC50 in test [1] (setting [4]) and in test [2] (setting [7]) were above 7.70 and 6.70 to 7.70, respectively.

Turning to `COc1ncc(-c2ccn3nc(N)nc3c2)cc1C(=O)NCc1ccc(F)cc1OC(=O)N(C)C` [Example 103], the pIC50 in test [1] (setting [6]) is 6.70 to 7.70; in test [2] (setting [3]) it was below 6.70.

For the compound `Nc1nc2cc(-c3cnc(Cl)c(C(=O)NCc4cccc(OC(F)(F)F)c4)c3)ccn2n1` [Example 167], the pIC50 in test [1] (setting [4]) and in test [2] (setting [5]) was above 7.70 in each case.

In the case of `CCOc1ncc(-c2ccn3nc(N)nc3c2)cc1C(=O)NCc1ccccc1Oc1ccccc1` [Example 277, 5-{2-amino-[1,2,4]triazolo[1,5-a]pyridin-7-yl}-2-ethoxy-N-[(2-phenoxyphenyl)methyl]pyridine-3-carboxamide], the pIC50 in test [1] (setting [4]) and in test [2] (setting [5]) was above 7.70 throughout.

For `[2H]C([2H])([2H])Oc1ncc(-c2ccn3nc(N)nc3c2)cc1C(=O)NC(C)c1ccccc1OC(F)(F)F` (single isomer, unassigned) [Example 95-2, 5-{2-amino-[1,2,4]triazolo[1,5-a]pyridin-7-yl}-2-(deutero)methoxy-N-{1-[2-(trifluoromethoxy)phenyl]ethyl}pyridine-3-carboxamide], the pIC50 in test [1] (setting [4]) and in test [2] (setting [5]) was above 7.70 throughout.

Take `COc1ncc(-c2ccn3nc(N)nc3c2)cc1C(=O)NCc1cccc(OC2CCCC2)c1` [Example 45, 5-{2-Amino-[1,2,4]triazolo[1,5-a]pyridin-7-yl}-N-{[3-(cyclopentyloxy)phenyl]methyl}-2-methoxypyridine-3-carboxamide]: the pIC50 is 6.70 to 7.70 in test [1] (setting [6]) and below 6.70 in test [2] (setting [3]).

In the case of `Nc1nc2cc(-c3cnc(N)c(C(=O)NCc4ccccc4OCC4CC4)c3)ccn2n1` [Example 56, 2-Amino-5-{2-amino-[1,2,4]triazolo[1,5-a]pyridin-7-yl}-N-{[2-(cyclopropylmethoxy)phenyl]methyl}pyridine-3-carboxamide], the pIC50 was above 7.70 in test [1] (setting [4]) and 6.70 to 7.70 in test [2] (setting [7]).

On to `Cc1ncc(-c2ccn3nc(N)nc3c2)cc1C(=O)NCc1c(F)cccc1OCC1CCCC1` [Example 15, 5-{2-Amino-[1,2,4]triazolo[1,5-a]pyridin-7-yl}-N-{[2-(cyclopentylmethoxy)-6-fluorophenyl]methyl}-2-methylpyridine-3-carboxamide], for which the pIC50 in test [1] (setting [4]) and in test [2] (setting [5]) was above 7.70 each time.

As for `COc1nc(C)c(-c2ccn3nc(N)nc3c2)cc1C(=O)NCCc1cccc(OC(F)(F)F)c1` [Example 198, 5-{2-amino-[1,2,4]triazolo[1,5-a]pyridin-7-yl}-2-methoxy-6-methyl-N-{2-[3-(trifluoromethoxy)phenyl]ethyl}pyridine-3-carboxamide], the pIC50 in test [1] (setting [6]) is 6.70 to 7.70; in test [2] (setting [3]), below 6.70.

On to `Cc1ncc(-c2ccn3nc(N)nc3c2)cc1C(=O)NCc1ccccc1OC1CCOCC1` [Example 5, 5-{2-Amino-[1,2,4]triazolo[1,5-a]pyridin-7-yl}-2-methyl-N-{[2-(oxan-4-yloxy)phenyl]methyl}pyridine-3-carboxamide], for which the pIC50 in test [1] (setting [4]) is above 7.70; in test [2] (setting [7]), 6.70 to 7.70.

Take `[2H]C([2H])([2H])Oc1ncc(-c2ccn3nc(N)nc3c2)cc1C(=O)NCc1cc(C(F)(F)F)ccc1F` [Example 91, 5-{2-amino-[1,2,4]triazolo[1,5-a]pyridin-7-yl}-N-{[2-fluoro-5-(trifluoromethyl)phenyl]methyl}-2-(deutero)methoxypyridine-3-carboxamide]: the pIC50 in test [1] (setting [6]) and in test [2] (setting [7]) was 6.70 to 7.70 in each case.

As to `CCCOc1ncc(-c2ccn3nc(N)nc3c2)cc1C(=O)NCCC(C)c1ccccc1` (centres unmarked) [Example 69, 5-{2-Amino-[1,2,4]triazolo[1,5-a]pyridin-7-yl}-N-(3-phenylbutyl)-2-propoxypyridine-3-carboxamide], the pIC50 is above 7.70 in test [1] (setting [4]) and below 6.70 in test [2] (setting [3]).

Regarding `[2H]C([2H])([2H])[C@@H](NC(=O)c1cc(-c2ccn3nc(N)nc3c2)cnc1C)c1cc(OC(F)(F)F)ccc1F` [Example 299, (R)-5-(2-amino-[1,2,4]triazolo[1,5-a]pyridin-7-yl)-N-(1-(2-fluoro-5-(trifluoromethoxy)phenyl)ethyl-2,2,2-d3)-2-methylnicotinamide], the pIC50 in test [1] (setting [4]) and in test [2] (setting [5]) was above 7.70 throughout.

Turning to `COc1nc(C)c(-c2ccn3nc(N)nc3c2)cc1C(=O)NCc1ncccc1OC1CCCC1` [Example 213, 5-{2-amino-[1,2,4]triazolo[1,5-a]pyridin-7-yl}-N-{[3-(cyclopentyloxy)pyridin-2-yl]methyl}-2-methoxy-6-methylpyridine-3-carboxamide], the pIC50 in test [1] (setting [4]) and in test [2] (setting [5]) was above 7.70 in each case.
